The assay concerns the target T1, human cannabinoid CB2 receptor (Homo sapiens, UniProt P34972).
T1 construct: expressed in transfected cells; host or cells: Saccharomyces cerevisiae strain MMY23 (expresses a chimeric Gpa1/human Galpha-i3 G-protein alpha subunit)
In words: Cannabinoid CB2 receptor agonist activity, yeast reporter assay. The following applies: for activity in the CB2 assay (in words): CB2 assay described herein; for Emax: read-out: efficacy (Emax) at the cloned human cannabinoid CB2 receptor. Format: cell-based. The text has this: Yeast (Saccharomyces cerevisiae) cells expressing the human cannabinoid CB2 receptor were generated by integration of an expression cassette into the ura3 chromosomal locus of yeast strain MMY23. This cassette consisted of DNA sequence encoding the human CB2 receptor flanked by the yeast GPD promoter to the 5′ end of CB2 and a yeast transcriptional terminator sequence to the 3′ end of CB2. MMY23 expresses a yeast/mammalian chimeric G-protein alpha subunit in which the C-terminal 5 amino acids of Gpa1 are replaced with the C-terminal 5 amino acids of human Gαi3 (as described in Brown et al. (2000), Yeast 16:11-22).
Agonists were prepared as 10 mM stocks in DMSO. […] Agonist solutions in DMSO (1% final assay volume) were transferred into black, clear bottom, microtitre plates from NUNC (96- or 384-well). […] Fluorescence was plotted against compound concentration and iteratively curve fitted using a four parameter fit to generate a concentration effect value.

Where [1] appears, read: yeast (Saccharomyces cerevisiae) cells expressing human CB2, read-out: EC50 at the cloned human cannabinoid CB2 receptor.

Where a name gives a salt, the structure may show the parent alone. Read-outs that look alike come from different tables or passages of the source. Bounds are passed on as bounds.

As a reminder, the EC50 is the concentration at which the effect is half-maximal. One may read the Emax as the size of the effect at its maximum, as opposed to the concentration needed.

T1 sequence (P34972 whole entry): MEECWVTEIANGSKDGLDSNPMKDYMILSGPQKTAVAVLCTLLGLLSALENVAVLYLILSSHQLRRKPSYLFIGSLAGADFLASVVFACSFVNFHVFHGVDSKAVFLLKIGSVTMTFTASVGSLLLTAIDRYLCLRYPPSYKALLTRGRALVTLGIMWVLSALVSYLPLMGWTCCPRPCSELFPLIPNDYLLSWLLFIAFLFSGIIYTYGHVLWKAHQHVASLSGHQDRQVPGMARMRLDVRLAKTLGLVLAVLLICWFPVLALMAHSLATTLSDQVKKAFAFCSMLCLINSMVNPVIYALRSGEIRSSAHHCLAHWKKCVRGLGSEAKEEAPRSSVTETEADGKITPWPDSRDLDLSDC

Consider `O=C(NCc1ccccc1Br)c1cnc(Nc2cccc(Cl)c2)nc1C(F)(F)F` [2-(3-Chloro-phenylamino)-4-trifluoromethyl-pyrimidine-5-carboxylic acid 2-bromo-benzylamide], for which the “activity in the CB2 assay (in words)” value is “inactive”. For the compound `COc1ccccc1CNC(=O)c1cnc(Nc2cccc(Cl)c2)nc1C(F)(F)F` [2-(3-Chloro-phenylamino)-4-trifluoromethyl-pyrimidine-5-carboxylic acid 2-methoxy-benzylamide], the “activity in the CB2 assay (in words)” value was “inactive”.

Consider `CN(Cc1ccccc1)C(=O)c1cnc(Nc2ccc(C(C)(C)C)cc2)nc1C(F)(F)F` [2-(4-tert-butyl-phenylamino)-4-trifluoromethyl-pyrimidine-5-carboxylic acid benzyl-methyl-amide], for which the “activity in the CB2 assay (in words)” value is “inactive”. Consider `CC(C)(C)c1ccc(Nc2ncc(C(=O)NCc3ccccc3)c(C(F)(F)F)n2)cc1` [2-(4-tert-butyl-phenylamino)-4-trifluoromethyl-pyrimidine-5-carboxylic acid benzylamide], for which the “activity in the CB2 assay (in words)” value was “inactive”. On to `O=C(NCc1ccccc1)c1cnc(Nc2cccc(Cl)c2)nc1C(F)(F)F` [Example 1, 2-(3-Chlorophenylamino)-4-trifluoromethylpyrimidine-5-carboxylic acid benzyl-amide], for which the concentration for a half-maximal effect (EC50) was in the range of 20 to 1000 nM and the Emax is above 50%.

As to `O=C(NCc1ccncc1)c1cnc(Nc2cccc(Cl)c2)nc1C(F)(F)F` [Example 2, 2-(3-Chlorophenylamino)-4-trifluoromethylpyrimidine-5-carboxylic acid (pyrdin-4-ylmethyl)amide], the EC50 is 20 to 1000 nM and the Emax was above 50%. For the compound `CN(Cc1ccccc1)C(=O)c1cnc(Nc2cccc(Cl)c2)nc1C(F)(F)F` [Example 3, 2-(3-Chlorophenylamino)-4-trifluoromethylpyrimidine-5-carboxylic acid N-benzyl-N-methylamide], the EC50 was 20 to 1000 nM and the Emax is above 50%. As for `COc1ccc(CNC(=O)c2cnc(Nc3cccc(Cl)c3)nc2C(F)(F)F)cc1` [Example 4, 2-(3-Chlorophenylamino)-4-trifluoromethylpyrimidine-5-carboxylic acid 4-methoxybenzyl-amide], the EC50 lay within 20 to 1000 nM and the Emax is above 50%.

Consider `O=C(NCc1ccc(F)cc1)c1cnc(Nc2cccc(Cl)c2)nc1C(F)(F)F` [Example 5, 2-(3-Chlorophenylamino)-4-trifluoromethylpyrimidine-5-carboxylic acid 4 fluorobenzyl-amide], for which the EC50 under setting [1] lay in the range of 20 to 1000 nM. In the case of `N#Cc1ccc(CNC(=O)c2cnc(Nc3cccc(Cl)c3)nc2C(F)(F)F)cc1` [Example 6, 2-(3-Chlorophenylamino)-4-trifluoromethylpyrimidine-5-carboxylic acid 4 cyanobenzyl-amide], the EC50 lay in the range of 20 to 1000 nM and the Emax is above 50%.

Turning to `CN(Cc1ccccc1)C(=O)c1cnc(Nc2cccc(Cl)c2Cl)nc1C(F)(F)F` [Example 7, 2-(2,3-Dichlorophenylamino)-4-trifluoromethylpyrimidine-5-carboxylic acid N-benzyl-N-methylamide], the EC50 lay in the range of 20 to 1000 nM and the maximal response (Emax) is above 50%. For the compound `O=C(NCc1ccccc1)c1cnc(Nc2ccc(Cl)cc2Cl)nc1C(F)(F)F` [Example 8, 2-(2,4-Dichlorophenylamino)-4-trifluoromethyloyrimidine-5-carboxyllc acid benzyl-amide], the EC50 is 20 to 1000 nM and the Emax was above 50%. On the same counts, the results for `O=C(NCc1ccccc1)c1cnc(Nc2ccc(Cl)c(Cl)c2)nc1C(F)(F)F` [Example 9, 2-(3,4-Dichlorophenylamino)-4-trifluoromethylpyrimidine-5-carboxylic acid benzyl-amide] are 20 to 1000 nM and above 50%.

For the compound `CN(Cc1ccccc1)C(=O)c1cnc(Nc2c(Cl)cccc2Cl)nc1C(F)(F)F` [Example 10, 2-(2,6-Dichlorophenylamino)-4-trifluoromethylpyrimidine-5-carboxylic acid N-benzyl-N-methylamide], the 50% effective concentration (EC50) lay within 20 to 1000 nM and the Emax is above 50%. On the same counts, the results for `O=C(NCc1ccccc1)c1cnc(Nc2cc(Cl)cc(Cl)c2)nc1C(F)(F)F` [Example 11, 2-(3,5-Dichlorophenylamino)trifluoromethylpyrimidine-5-carboxylic acid benzyl-amide] are 20 to 1000 nM and above 50%. On the same counts, the results for `O=C(NCc1ccccc1)c1cnc(Nc2cccc(F)c2)nc1C(F)(F)F` [Example 12, 2-(3-Fluorophenylamino)-4-trifluoromethylpyrimidine-5-carboxylic acid benzyl-amide] are 20 to 1000 nM and above 50%. For `O=C(NCc1ccccc1)c1cnc(Nc2cccc(Br)c2)nc1C(F)(F)F` [Example 13, 2-(3-Bromophenylamino)-4-trifluoromethylpyrimidine-5-carboxylic acid benzyl-amide], the EC50 is 20 to 1000 nM and the Emax is above 50%. Turning to `CN(Cc1ccccc1)C(=O)c1cnc(Nc2cccc(Br)c2)nc1C(F)(F)F` [Example 14, 2-(3-Bromophenylamino)-4-trifluoromethylpyrimidine-5-carboxylic acid N-benzyl-N-methylamide], the EC50 was 20 to 1000 nM and the Emax is above 50%. `COc1ccccc1Nc1ncc(C(=O)NCc2ccccc2)c(C(F)(F)F)n1` [Example 15, 2-(2-Methoxyphenylamino)-4-trifluoromethylpyrimidine-5-carboxylic acid benzyl-amide]: the EC50 fell in the range of 20 to 1000 nM and the maximal response (Emax) was above 50%. As for `O=C(NCc1ccncc1)c1cnc(Nc2cccc(Cl)c2Cl)nc1C(F)(F)F` [Example 16], the EC50 lay within 20 to 1000 nM and the Emax is above 50%. In the case of `O=C(NCc1ccncc1)c1cnc(Nc2ccc(Cl)cc2Cl)nc1C(F)(F)F` [Example 17, 2-(2,4-Dichlorophenylamino)-4-trifluoromethylpyrimidine-5-carboxylic acid (pyridin-4-ylmethyl)amide], the EC50 fell in the range of 20 to 1000 nM and the Emax was above 50%. As to `O=C(NCc1ccncc1)c1cnc(Nc2ccc(Cl)c(Cl)c2)nc1C(F)(F)F` [Example 18], the EC50 is 20 to 1000 nM and the Emax is above 50%. On the same counts, the results for `O=C(NCc1ccncc1)c1cnc(Nc2cc(Cl)ccc2Cl)nc1C(F)(F)F` [Example 19, 2-(2,5-Dichlorophenylamino)trifluoromethylpyrimidine-5-carboxylic acid (pyridin-4-ylmethyl)amide] are 20 to 1000 nM and above 50%.

Take `O=C(NCc1ccncc1)c1cnc(Nc2cccc(F)c2)nc1C(F)(F)F` [Example 20, 2-(3-Fluorophenylamino)-4-trifluoromethylpyrimidine-5-carboxylic acid (pyridin-4-ylmethyl)amide]: the EC50 is 20 to 1000 nM and the Emax was above 50%. On the same counts, the results for `O=C(NCc1ccncc1)c1cnc(Nc2cccc(Br)c2)nc1C(F)(F)F` [Example 21, 2-(3-Bromophenylamino)-4-trifluoromethylpyrimidine-5-carboxylic acid (pyridin-4-ylmethyl)amide] are 20 to 1000 nM and above 50%.

Turning to `O=C(NCc1ccncc1)c1cnc(Nc2cc(Cl)cc(Cl)c2)nc1C(F)(F)F` [Example 22, 2-(3,5-Dichlorophenylamino)-4-trifluoromethylpyrimidine-5-carboxylic acid (pyridin-4-ylmethyl)amide], the EC50 was in the range of 20 to 1000 nM and the Emax was above 50%. As to `O=C(NCc1ccc(F)cc1)c1cnc(Nc2cccc(F)c2)nc1C(F)(F)F` [Example 23, 2-(3-Fluorophenylamino)-4-trifluoromethylpyrimidine-5-carboxylic acid 4-fluorobenzyl-amide], the EC50 was 20 to 1000 nM and the Emax is above 50%.

In the case of `O=C(NCc1ccc(F)cc1)c1cnc(Nc2cccc(Br)c2)nc1C(F)(F)F` [Example 24], under setting [1], the EC50 was 20 to 1000 nM.

Take `O=C(NCc1ccc(F)cc1)c1cnc(Nc2cc(Cl)cc(Cl)c2)nc1C(F)(F)F` [Example 25, 2-(3,5-Dichlorophenylamino)trifluoromethylpyrimidine-5-carboxylic acid 4-fluorobenzyl-amide]: the EC50 fell in the range of 20 to 1000 nM and the maximal response (Emax) is above 50%.

In the case of `N#Cc1ccc(CNC(=O)c2cnc(Nc3cc(Cl)cc(Cl)c3)nc2C(F)(F)F)cc1` [Example 26, 2-(3,5-Dichlorophenylamino)-4-trifluoromethylpyrimidine-5-carboxylic acid 4-cyanobenzylamide], the EC50 lay within 20 to 1000 nM and the Emax was above 50%. For `N#Cc1ccc(Nc2ncc(C(=O)NCc3ccccc3)c(C(F)(F)F)n2)cc1` [Example 27, 2-(4-Cyano-phenylamino)-4-trifluoromethyl-pyrimidine-5-carboxylic acid benzylamide], the concentration giving a half-maximal response (EC50) lay in the range of 20 to 1000 nM and the Emax was above 50%.

Consider `Cc1cc(CNC(=O)c2cnc(Nc3cccc(Cl)c3)nc2C(F)(F)F)ccn1` [Example 28, 2-(3-Chloro-phenylamino)-4-trifluoromethyl-pyrimidine-5-carboxylic acid (2-methyl-pyridin-4-ylmethyl)-amide hydrochloride], for which the EC50 lay in the range of 20 to 1000 nM and the maximal response (Emax) was above 50%.

Values taken from US20060247261A1 (priority 2002, published 2006).
